In patent US20220401407A1, “REGULATION OF THE SLEEP/WAKE CYCLE USING C[…]” (Demetrix, Inc., priority 2021, published 2022):
“Also recorded” adds a separate entry of the source.

Tests used:
Type in all cases: cell-based
dopamine receptor DRD5 = dopamine receptor DRD5 (Homo sapiens, UniProt P21918); test: PathHunter β-Arrestin GPCR agonist assay, DRD5; set-up: DRD5 (Agonist) percent activity: concentration or dose not given beside the values; settings: for DRD5 (Agonist) percent activity: agonist mode, dopamine as control
Description: (§1) To perform the GPCR reactivity assay, a commercial GPCR assay, PathHunter® β-Arrestin from Eurofins DiscoverX Products (Fremont, Calif.), was used. […] At activation of the GPCR receptor and recruitment of β-arrestin, complementation of the peptide fragments occurs and restores β-galactosidase activity. The amount of β-galactosidase activity is then measurable using chemiluminescent reagents.
(§2) A total of four assays were run. Agonist assays were run for each of HCRTR1 and HCRTR2 and antagonist assays were run for HCRTR1 and HCRTR2. In each of the two agonist assays, PathHunter® cell lines were removed from a freezer stock and seeded at a volume of 20 μL into white walled, 384-well microplates and incubated at 37° C. Each cell was incubated with a sample to induce a response and then diluted to generate a 5× sample in assay buffer. 5 μL of the 5× sample was then added to cells and incubated at 37° C. for 90 or 180 minutes. The final assay concentration was 1%. The assay signal was generated through addition of 12.5 μL or 15 μL (50% V/V) of a detection reagent cocktail followed by a one hour incubation time at room temperature. Microplates were read following signal generation with a PerkinElmer Envision™ (PerkinElmer Inc., Waltham, Mass.) for chemiluminescent signal detection. Reactivity was analyzed using the CBIS data analysis suite (ChemInnovation, CA) where RLU refers to the raw measured values. The percent activity was then calculated using the formula: % Activity=100%*(mean RLU of test sample−mean RLU of control)/(mean max control ligand−mean RLU of vehicle control).
Table 2 depicts the results of evaluating the cannabinoid compounds to act as an agonist for the dopamine receptor DRD5. The same experimental procedure as used for HCRTR1 and HCRTR2 agonist testing (Table 1) was followed with the substitution of dopamine as the control for the DRD5 receptor.

HCRTR1 [1] = molecular target: T1, HCRTR1 (Homo sapiens, UniProt O43613); test: PathHunter β-Arrestin GPCR antagonist assay, HCRTR1; settings: for HCRTR1 (Antagonist) percent inhibition: antagonist mode, agonist challenge at EC80
T1 sequence (O43613 1-425): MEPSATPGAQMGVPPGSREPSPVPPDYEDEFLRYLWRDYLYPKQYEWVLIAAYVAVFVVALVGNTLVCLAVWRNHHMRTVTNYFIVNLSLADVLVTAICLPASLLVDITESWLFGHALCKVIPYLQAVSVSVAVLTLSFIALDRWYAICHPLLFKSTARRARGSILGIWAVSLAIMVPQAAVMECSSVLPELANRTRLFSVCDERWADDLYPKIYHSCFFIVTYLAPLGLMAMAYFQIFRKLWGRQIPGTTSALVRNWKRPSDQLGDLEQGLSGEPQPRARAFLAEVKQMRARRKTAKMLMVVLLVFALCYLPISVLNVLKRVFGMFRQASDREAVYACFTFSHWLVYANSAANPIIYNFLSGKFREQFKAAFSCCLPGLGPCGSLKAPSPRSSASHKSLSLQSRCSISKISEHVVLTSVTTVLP
Procedure: (§3) To evaluate the role specific cannabinoid compounds may play on the sleep/wake cycle, a GPCR reactivity assay was performed to determine the reactivity of 19 cannabinoid compounds to the orexin receivers HCRTR1 and HCRTR2. The evaluated cannabinoid compounds were: CBN, THCV, CBDVA, CBG, CBL, CBC, CBDV, CBDA, CBD, CBGA, (+)-CBD, CBG-C4, CBD-C1, CBD-C2, CBGV, CBGA-C4, CBGVA, CBCA, and CBLA. Orexin A was used as the control for HCRTR1 and HCRTR2.
as §1
(§4) In each of the two antagonist assays, PathHunter® cell lines were removed from a freezer stock and seeded at a volume of 20 μL into white walled, 384-well microplates and incubated at 37° C. Each cell was pre-incubated with an antagonist followed by an agonist challenge at the EC80 concentration. Cells were then diluted to generate a 5× sample in assay buffer. 5 μL of the 5× sample was then added to cells and incubated at 37° C. for 30 minutes. Finally, 5 μL of 6×EC80 agonist in assay buffer were added to the cells and incubated at 37° C. for 90 minutes or 180 minutes. The assay signal was generated through addition of 12.5 μL or 15 μL (50% V/V) of a detection reagent cocktail followed by a one hour incubation time at room temperature. Microplates were read following signal generation with a PerkinElmer Envision™ (PerkinElmer Inc., Waltham, Mass.) for chemiluminescent signal detection. Reactivity was analyzed using the CBIS data analysis suite (ChemInnovation, CA) where RLU refers to the raw measured values. The percent inhibition was calculated using the formula: % Inhibition=100%*(1−mean RLU of test sample−mean RLU of control)/(mean RLU of EC80 control−mean RLU of vehicle control).
(§5) For agonist activity, the percent activity is depicted while for antagonist activity, the percent inhibition is depicted.

HCRTR2 [2] = molecular target: T2, HCRTR2 (Homo sapiens, UniProt O43614); test: PathHunter β-Arrestin GPCR antagonist assay, HCRTR2; settings: for HCRTR2 (Antagonist) percent inhibition: antagonist mode, agonist challenge at EC80
T2 sequence (O43614 1-444): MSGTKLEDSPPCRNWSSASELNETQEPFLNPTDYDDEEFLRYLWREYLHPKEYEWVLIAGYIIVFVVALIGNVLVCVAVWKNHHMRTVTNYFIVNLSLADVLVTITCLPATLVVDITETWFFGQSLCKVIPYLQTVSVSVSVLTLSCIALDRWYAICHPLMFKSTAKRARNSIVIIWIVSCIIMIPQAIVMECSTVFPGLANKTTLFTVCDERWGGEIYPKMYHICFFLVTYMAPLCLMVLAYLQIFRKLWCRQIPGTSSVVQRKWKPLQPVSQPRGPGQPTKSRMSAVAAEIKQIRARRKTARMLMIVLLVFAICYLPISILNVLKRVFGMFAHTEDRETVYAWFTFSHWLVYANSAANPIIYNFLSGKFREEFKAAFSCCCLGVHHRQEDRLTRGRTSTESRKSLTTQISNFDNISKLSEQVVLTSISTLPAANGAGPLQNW
Procedure: as §3, §1, §4, §5

HCRTR1 [3] = molecular target: T1, HCRTR1; test: PathHunter β-Arrestin GPCR agonist assay, HCRTR1; set-up: concentration or dose not given beside the values; settings: agonist mode; Orexin A as control
Procedure: as §3, §1, §2, §5

HCRTR2 [4] = molecular target: T2, HCRTR2; test: PathHunter β-Arrestin GPCR agonist assay, HCRTR2; set-up: concentration or dose not given beside the values; settings: agonist mode; Orexin A as control
Procedure: as §3, §1, §2, §5

Chain of dopamine receptor DRD5 (P21918 whole entry, the tested form may be a part): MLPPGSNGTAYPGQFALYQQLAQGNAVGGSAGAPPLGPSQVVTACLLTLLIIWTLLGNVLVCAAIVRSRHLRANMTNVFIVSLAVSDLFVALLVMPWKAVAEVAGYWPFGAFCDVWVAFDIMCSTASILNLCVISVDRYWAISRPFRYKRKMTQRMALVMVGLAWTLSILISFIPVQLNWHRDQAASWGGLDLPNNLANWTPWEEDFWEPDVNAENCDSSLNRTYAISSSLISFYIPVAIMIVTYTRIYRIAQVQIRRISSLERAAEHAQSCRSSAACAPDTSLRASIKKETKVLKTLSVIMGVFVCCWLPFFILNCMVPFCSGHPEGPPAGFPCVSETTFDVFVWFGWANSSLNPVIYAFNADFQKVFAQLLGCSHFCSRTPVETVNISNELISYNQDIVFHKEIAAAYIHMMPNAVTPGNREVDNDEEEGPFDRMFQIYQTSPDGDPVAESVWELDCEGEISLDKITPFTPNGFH

| Compound | DRD5 (Agonist) percent activity (dopamine receptor DRD5) [%] | antagonist effect on HCRTR1 (in words) (HCRTR1 [1]) | HCRTR1 (Antagonist) percent inhibition (HCRTR1 [1]) [%] | antagonist effect on HCRTR2 (in words) (HCRTR2 [2]) | HCRTR2 (Antagonist) percent inhibition (HCRTR2 [2]) [%] | HCRTR1 (Agonist) percent activity (HCRTR1 [3]) [%] | HCRTR2 (Agonist) percent activity (HCRTR2 [4]) [%] | DRD5 agonist effect (in words) (dopamine receptor DRD5) |
| --- | --- | --- | --- | --- | --- | --- | --- | --- |
| CCCc1cc(O)c(C/C=C(\C)CCC=C(C)C)c(O)c1 [CBGV, cannabigerivarin] | 6 | demonstrate activity against only HCRTR1; also recorded: acted as antagonists | 44 | demonstrate activity against only HCRTR1; also recorded: did not act as antagonists | 12 | 4 | 2 |  |
| C=C(C)[C@@H]1CCC(C)=C[C@H]1c1c(O)cc(C)cc1O [CBD-C1, cannabidiorcol] | 0 | do not demonstrate meaningful activity | 12 | do not demonstrate meaningful activity | 9 | 3 | 1 |  |
| (+)-cannabidiol [(+)-CBD] | 9 | antagonist effect; also recorded: acted as an antagonist | 97 | antagonist effect; also recorded: acted as an antagonist | 80 | 3 | 8 |  |
| CCCc1cc(O)c2c(c1)OC(C)(C)[C@@H]1CCC(C)=C[C@@H]21 [THCV, tetrahydrocannabivarin] | 52 | antagonist effect; also recorded: acted as an antagonist | 89 | antagonist effect; also recorded: acted as an antagonist | 89 | 2 | 6 | DRD5 agonists; also recorded: stronger agonist effects |
| C=C(C)[C@@H]1CCC(C)=C[C@H]1c1c(O)cc(CCCCC)c(C(=O)O)c1O [CBDA, cannabidiolic acid] | 5 | do not demonstrate meaningful activity | 2 | do not demonstrate meaningful activity | 10 | 1 | 0 |  |
| C=C(C)[C@@H]1CCC(C)=C[C@H]1c1c(O)cc(CCC)c(C(=O)O)c1O [CBDVA, cannabidivarinic acid] | 4 | do not demonstrate meaningful activity | 7 | do not demonstrate meaningful activity | 10 | 0 | 0 |  |
| CCCCCc1cc2c(c(O)c1C(=O)O)C=CC(C)(CCC=C(C)C)O2 (centres unmarked) [CBCA, cannabichromenic acid] | 1 | do not demonstrate meaningful activity | 12 | do not demonstrate meaningful activity | 17 | 3 | 1 |  |
